The METLIN SMRT retention time set (Domingo-Almenara et al. 2019)

Test: gradient 5% acetonitrile 3 min, to 50% in 2 min, to 85% in 15 min, held 3 min, 100 µL/min
Conditions: column: Zorbax Extend-C18 2.1 x 50 mm; eluents: water / acetonitrile, 0.1% formic acid
Method in brief: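 The system's dead and dwell volumes were 40 μL and 900 μL, with a Zorbax Extend-C18 column (2.1 × 50 mm, 1.8 μm) run at 100 μL/min in water and acetonitrile containing 0.1% formic acid each. Pure standards were analyzed in mixtures of ~100 molecules by HPLC–quadrupole time-of-flight mass spectrometry in positive and negative ionization mode. Retention time was assigned from computationally picked, manually inspected adduct peaks.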

| RP-LC retention time | Structure (SMILES) |
| --- | --- |
| 893 s | CCOC(=O)c1c(C)[nH]c(C(=O)N2CCCC(C(=O)NCCC3=CCCCC3)C2)c1C (centres undefined) |
| 1170 s | CCOc1ccccc1NC(=O)CSc1ncc(-c2cccc(Br)c2)o1 |
| 758 s | Cc1ccc(NC(=O)C2CCCN2S(=O)(=O)c2cc3c(cc2C)NC(=O)CO3)cc1 (centres undefined) |
| 624 s | Cn1c(=O)sc2cc(S(=O)(=O)N3CCC(C(=O)NCCc4nc5ccccc5[nH]4)CC3)ccc21 |
| 1080 s | COc1ccc(C(=O)Nc2nc3c(s2)CCc2cc(OC)ccc2-3)cc1 |
| 1090 s | Cc1ccc(N2CC(c3noc(-c4cccc(C)c4)n3)CC2=O)cc1 (centres undefined) |
| 573 s | CCC1Oc2ccc(S(=O)(=O)N3CCC(C(=O)N4CCN(CC)CC4)CC3)cc2NC1=O (centres undefined) |
| 697 s | O=C(c1ccc(OCC2CCN(C(=O)c3ccoc3)CC2)cc1)N1CCOCC1 |
| 657 s | Cc1nn(CC(=O)NCCN2CCCCCC2)c(=O)c2nc(-c3ccccc3)sc12 |
| 798 s | COc1ccccc1N1CCN(Cc2nc(-c3ccccc3)no2)CC1 |
| 993 s | O=C(CC1Sc2ccc(C(F)(F)F)cc2NC1=O)Nc1cccc(Cl)c1Cl (centres undefined) |
| 737 s | Cc1cc(NC(=O)c2ccc(S(=O)(=O)Nc3ccc4c(c3)OCO4)o2)no1 |
| 656 s | CC1Oc2ccccc2OC1C(=O)Nc1cccc(-c2cn3c(n2)SCC3)c1 (centres undefined) |
| 860 s | CCC(=O)N1CCc2cc(S(=O)(=O)CCC(=O)NC3CCCc4ccccc43)ccc21 (centres undefined) |
| 894 s | COc1ccccc1-c1cc(C(F)(F)F)n2ncc(C(=O)OCCN3CCCC3=O)c2n1 |
| 1000 s | COc1cccc(NC(=O)C2CCN(S(=O)(=O)c3cc(-c4noc(C5CC5)n4)cs3)CC2)c1 |
| 857 s | Cc1cc2c(cc1S(=O)(=O)N1CCCC1C(=O)NC1CCCCCCC1)OC(C)C(=O)N2 (centres undefined) |
| 1310 s | COc1cccc(N2CCN(c3ccc(-c4nc(-c5cccc(F)c5)no4)cn3)CC2)c1 |
| 560 s | CN(C)CCNC(=O)c1ccc(-c2ccc(N3CCCCCC3)nc2)cc1 |
| 718 s | Cc1ccc2nc(C(=O)NCc3ccc(Cl)cc3)cn2c1 |
| 780 s | CC(C)c1noc(COC2CCCN(C(=O)NCc3ccccc3)C2)n1 (centres undefined) |
| 717 s | COC(=O)c1cnc2nc(C)ccc2c1Nc1ccc(F)c(Cl)c1 |

| RP-LC retention time | Structure (SMILES) |
| --- | --- |
| 989 s | CC(C)OCCCNC(=O)c1cc2c(n(-c3ccc(C(C)C)cc3)c1=O)CCCC2=O |
| 810 s | COc1ccc(CNC(=O)C2CCN(S(C)(=O)=O)c3ccccc3O2)cc1 (centres undefined) |
| 843 s | Cc1ccc(S(=O)(=O)N2CCC(C(=O)NCC(=O)N3CCCc4ccccc43)CC2)cc1 |
| 1010 s | O=C(Nc1cc(F)ccc1Cl)c1cnc(-c2ccc(F)cc2)nc1-c1ccncc1 |
| 601 s | O=C(CN1CCN(Cc2ccccc2)C1=O)N1CCN(C2CCCCC2)CC1 |
| 751 s | Cc1ccc2ncn(C3CCN(C(=O)Nc4ccccc4)CC3)c(=O)c2c1 |
| 820 s | CCOC(=O)C1CCCN(C(=O)Cc2cc(-c3ccc(F)cc3)on2)C1 (centres undefined) |
| 988 s | COCCNC(=O)Cn1cccc1-c1nc(-c2ccc(Cl)cc2)cs1 |
| 570 s | Cn1nc2n(c1=O)CCN(C(=O)c1ccsc1)CC2 |
| 630 s | Cc1[nH]c(C)c(S(=O)(=O)N2CCC(C(=O)NC3CC3)CC2)c1C(=O)N1CCCCC1 |
| 773 s | Cc1noc(-c2ccnc(-n3cnc(C(=O)NCC(C)C)c3)c2)n1 |
| 995 s | Cc1c(Cl)cccc1-n1ccnc(NC(=O)Nc2ccc3c(c2)OCO3)c1=O |
| 944 s | CCOc1ccc(-c2noc(CN3C(=O)COc4ccc(S(=O)(=O)CC)cc43)n2)cc1 |
| 1210 s | Cc1nn(-c2nc(-c3ccc(F)cc3)cs2)c(C)c1CC(=O)N1CCCCCC1 |
| 599 s | O=C(NCc1ccccn1)C1CCN(c2nc3ccc(-c4cncnc4)nc3s2)CC1 |
| 720 s | Cc1noc(C)c1S(=O)(=O)N1CCCC(Cn2c(C3CC3)nc3cccnc32)C1 (centres undefined) |
| 896 s | CCCCCNC(=O)c1ccc2c(c1)CCCN2S(=O)(=O)CC |
| 638 s | CCc1nncn1C1CCN(C(=O)Nc2ccc(Cl)cc2F)C1 (centres undefined) |
| 566 s | Cc1ccn2cc(C(=O)N3CCN(C4CCCCC4)CC3)nc2c1 |
| 961 s | COc1ccc(-c2nc(C3CC(=O)N(c4ccc(F)cc4)C3)no2)cc1 (centres undefined) |
| 579 s | COc1ccc(-c2nc(NCCCN3CCCCC3C)c3ccccc3n2)cc1 (centres undefined) |
| 867 s | Cc1ccc(NC(=O)C2CC(=O)N(CCc3c[nH]c4ccc(F)cc34)C2)cc1C (centres undefined) |

| RP-LC retention time | Structure (SMILES) |
| --- | --- |
| 1260 s | Cc1cccc(-c2noc(Cc3nc(-c4ccc(F)cc4)cs3)n2)c1 |
| 587 s | COc1cccc2nnc(NC(=O)CCC(=O)NCC(C)C)n12 |
| 591 s | COCCNC(=O)NCC(O)Cc1ccccc1 (centres undefined) |
| 607 s | CC(C)n1nnc2cc(S(=O)(=O)N(C)CC(=O)N3CCN(c4ccccn4)CC3)ccc21 |
| 727 s | CN1C(=O)CC[C@]2(CNC(=O)COc3cccc(Cl)c3)CCC[C@@H]12 |
| 660 s | COc1cccc(CNC(=O)c2nsc(C(=O)N3CCN(c4ccccn4)CC3)c2N)c1 |
| 750 s | O=C(C1CC(=O)N(c2ccc3c(c2)CCN3C(=O)C2CC2)C1)N1CCCCCC1 (centres undefined) |
| 1260 s | O=C1Cc2c(-c3ccccc3)cc(-c3cccc(Cl)c3)nc2-c2ccccc2N1 |
| 884 s | CCN(CC)S(=O)(=O)c1ccc(NC(=O)N2CCCC(C(=O)Nc3ccc(OC)cc3)C2)s1 (centres undefined) |
| 700 s | C=CCNC(=O)COc1cccc2c(=O)n(CC=C)ccc12 |
| 985 s | Cc1cc2nn(CC(=O)Nc3ccccc3F)c(=O)n2c(Nc2ccccc2)n1 |
| 604 s | Cc1noc([C@@H]2CN(Cc3ccccc3C(F)(F)F)C[C@H]2CO)n1 |
| 1090 s | COc1ccc(CNC(=O)CSc2cc(N3CCN(c4ccccc4OC)CC3)ncn2)cc1 |
| 612 s | Cc1nc(Nc2ccc(Cl)cn2)sc1C(=O)N1CCN(C(C)C)CC1 |
| 810 s | Cc1ccc(-n2cc(C(=O)NCCCOC(C)C)nn2)cc1 |
| 780 s | CC1CS(=O)(=O)N(c2ccc(C(=O)NCCc3c[nH]c4ccccc34)cc2)C1=O (centres undefined) |
| 636 s | CCn1cc(S(=O)(=O)N2CC(F)(F)C[C@H]2COc2cccnc2)cn1 |
| 1040 s | CCc1ccc(CNC(=O)c2c(O)c3cccnc3[nH]c2=O)cc1 |
| 590 s | CCn1ccc(C(=O)NC2CCCN(c3cc(N(C)C)ncn3)C2)n1 (centres undefined) |
| 690 s | O=C(NCCc1c[nH]c2ccccc12)C1CCCN(c2nnc(N3CCCC3=O)s2)C1 (centres undefined) |
| 863 s | O=C(NC1(c2nc(-c3ccncc3)no2)CCCCC1)c1ccccc1 |
| 745 s | Cc1cc2c(cc1C)N(C(=O)CCl)CC(=O)N2 |

| RP-LC retention time | Structure (SMILES) |
| --- | --- |
| 680 s | COc1ccc(N2CC(C(=O)N3CCC(C(=O)Nc4nc(C)cs4)CC3)CC2=O)cc1 (centres undefined) |
| 1050 s | Cc1cc(NC(=O)C2CCCN(c3ccc(=O)n(-c4cccc(F)c4)n3)C2)ccc1Br (centres undefined) |
| 934 s | OC(COCCOc1c(F)cc(Br)cc1F)CSc1ccccn1 (centres undefined) |
| 837 s | C=CCN1C(=O)COc2ccc(-c3csc(NC(=O)CC)n3)cc21 |
| 633 s | CC(C)N1C(=O)C2(CCCCC2)C1C(=O)N1CCOCC1 (centres undefined) |
| 709 s | O=C(CN1C(=O)NC2(CCCCC2)C1=O)Nc1ccc2c(c1)OCO2 |
| 714 s | O=C(CCc1cccc2[nH]ccc12)NCc1ccc(N2CCOCC2)cc1 |
| 1020 s | Cc1ccc(C)c(N2CCN(c3ccnc(SCC(=O)Nc4cccc(Cl)c4C)n3)CC2)c1 |
| 1040 s | Cc1ccc(S(=O)(=O)N2CCC(C)(C(=O)NCc3ccccc3C)CC2)c(C)c1 |
| 647 s | O=C(C1CCN(c2ccc(Sc3ccccc3)nn2)CC1)N1CCOCC1 |
| 716 s | COC(=O)c1cnc2nc(C)ccc2c1Nc1cc(Cl)ccc1C |
| 761 s | CCc1ccc(C2=C(C)C(N3CCC(NC(=O)CCOC)CC3)=NS2(=O)=O)cc1 |
| 1180 s | O=S(=O)(c1ccc(Br)cc1)N1CCC(c2noc(-c3ccccc3)n2)CC1 |
| 865 s | CC(C)COc1nc2c(c(=O)n(C)c(=O)n2C)n1C |
| 594 s | Cc1cccc(NC(=O)Cn2ncn3c(C)c(C(=O)NCC(C)C)c(C)c3c2=O)c1 |
| 877 s | Cc1ccc(N2C(=O)CN(S(C)(=O)=O)CC2(C)C(=O)NCc2ccc(F)cc2)cc1Cl (centres undefined) |
| 667 s | COc1ccc(Cl)cc1NC(=O)NCc1ccnc(N2CCSCC2)c1 |
| 786 s | O=C(Nc1cccc(F)c1)c1nnc(C(=O)N2CCC(C(=O)NC3CCCC3)CC2)s1 |
| 554 s | OC1(c2ccccn2)CCOC2(CCN(Cc3cccc(F)c3)CC2)C1 (centres undefined) |
| 734 s | COc1ccc(C2(CNC(=O)Cc3cccs3)CCOCC2)cc1 |

| Structure (SMILES) | RP-LC retention time |
| --- | --- |
| Cc1ncc2c(n1)C[C@@H]1CC[C@H]2N1C(=O)c1sccc1C | 654 s |
| CCOC(=O)c1ncn2c1[C@@H]1CCCN1C(=O)c1cc(OC)ccc1-2 | 758 s |
| CC[C@@]1(O)C(=O)OCc2c1cc1n(c2=O)Cc2cc3c(NC(=O)CN)cccc3nc2-1 | 626 s |
